Experimental data as given in PubChem BioAssay AID1890 (The Scripps Research Institute Molecular Screening Center, 2009).
Activity calls are given as the source filed them. No rule for the calls is given here.

Molecular target: Replicase polyprotein 1ab (Severe acute respiratory syndrome coronavirus) (UniProt P0C6X7)
Assay: SARS 3CLpro cleavage inhibition IC50 – biochemical, quenched FRET, dose response (AID 1890)
Settings: purified 3CLpro, quenched FRET peptide cleavage

SMILES: CCc1nc(N2CCN(C(=O)CCl)CC2)c2c3c(sc2n1)CC(C)CC3 (stereo unspecified)
- IC50: 4.23 µM

SMILES: O=C1C(=O)N(CC2COc3ccccc3O2)c2ccccc21 (stereo unspecified)
- IC50: inactive

SMILES: Cc1ccc(C(=O)Oc2ccc3c(c2)ncn3C)cc1
- IC50: inactive

SMILES: Cc1cc(C)c(N(C(=O)Cn2nnc3ccccc32)C(C(=O)NC(C)(C)C)c2ccsc2)c(C)c1 (stereo unspecified)
- IC50: 2.9 µM

SMILES: COc1cccc(C(C(=O)NCC2CCCO2)N(C(=O)Cn2nnc3ccccc32)c2ccc(NC(C)=O)cc2)c1 (stereo unspecified)
- IC50: inactive

SMILES: Cc1cc(NC(=O)COC(=O)C(Nc2ccc(C(F)(F)F)cc2Cl)C(C)C)no1 (stereo unspecified)
- IC50: > 59.6 µM (inactive)

SMILES: C[C@@]12C(=O)N(c3cccc(Br)c3)C(=O)N1[C@H](c1ccc(Cl)cc1)[C@@H]1C(=O)N(C3CCCCC3)C(=O)[C@@H]12
- IC50: > 59.6 µM (inactive)

SMILES: NC(=O)CCn1c(C(=O)c2cc(Cl)c(N)c(Cl)c2)c2ccccc2[n+]1[O-]
- IC50: 9.81 µM

SMILES: Cn1cnc2cc(NC(=O)c3ccc(Cl)cc3)ccc21
- IC50: inactive

SMILES: COc1ccc(C2CC(c3cccs3)=NN2C(=O)CCl)cc1OC (stereo unspecified)
- IC50: 2.3 µM

SMILES: CC(C)c1ccc(N(C(=O)c2csnn2)C(C(=O)NC2CCCC2)c2cccnc2)cc1 (stereo unspecified)
- IC50: inactive

SMILES: COc1ccc(N(Cc2cc(=O)[nH]c3ccccc23)C(=O)CCl)cc1
- IC50: inactive

SMILES: O=C1C(=O)N(CCCc2ccccc2)c2ccccc21
- IC50: inactive

SMILES: O=C(c1cc(=O)[nH]c2ccccc12)N1CCN(c2ccccc2)CC1
- IC50: 9.95 µM

SMILES: COc1cc2c(cc1OC)C(c1cc(Br)ccc1F)N(C(=O)CCl)CC2 (stereo unspecified)
- IC50: 9.88 µM

SMILES: CC(=O)NC1C(=O)N(CCN2CCOCC2)c2ccc(F)cc21 (stereo unspecified)
- IC50: 9.1 µM

SMILES: O=C(CSc1ccccn1)Nc1nonc1[N+](=O)[O-]
- IC50: 7.07 µM

SMILES: Cc1ccc(C(=O)O)cc1NC(=S)NC(=O)c1ccc(COc2ccccc2)cc1
- IC50: > 59.6 µM (inactive)

SMILES: CCc1cc(=O)oc2cc(OC(=O)c3ccco3)ccc12
- IC50: 2.96 µM

SMILES: Cc1ccc(C(=O)n2cnc3ccccc32)cc1C
- IC50: inactive

SMILES: COc1ccccc1/C=C/C(=O)c1cc(Br)ccc1OC(=O)c1ccco1
- IC50: 8.94 µM

SMILES: COc1cccc(/C=N/NC(=S)Nc2cccnc2)c1
- IC50: inactive

SMILES: O=C(/C=C/c1ccc(Cl)c([N+](=O)[O-])c1)NCc1cccnc1
- IC50: inactive

SMILES: O=C(Cc1ccc(Cl)c(Cl)c1)Nc1cccnc1
- IC50: inactive

SMILES: CC(=O)c1cc(-c2ccccc2)[nH]c1N1CCCC1
- IC50: 4.63 µM

SMILES: CC1(C)C2CC=C(/C=N/NC(=S)Nc3cccnc3)C1C2 (stereo unspecified)
- IC50: > 59.6 µM (inactive)

SMILES: CC(=O)c1c(OC(=O)c2ccco2)c2ccccc2n1C
- IC50: inactive

SMILES: O=C(Cn1nnc2ccccc21)c1ccc(Br)cc1
- IC50: 4.01 µM

SMILES: CCc1ccc2c(c1)C(NC(C)=O)C(=O)N2CCN1CCOCC1 (stereo unspecified)
- IC50: 6.56 µM

SMILES: Cc1cccc2c1N(CCOc1ccccc1)C(=O)C2=O
- IC50: inactive

SMILES: N#CCC(=O)N/N=C/c1c(-c2ccccc2)n(-c2ccccc2)c2ccccc12
- IC50: > 59.6 µM (inactive)

SMILES: Cc1sc(NC(=O)CCl)c(C(=O)c2ccccc2)c1C
- IC50: inactive

SMILES: CC(=O)Nc1ccc(N(C(=O)Cn2nnc3ccccc32)C(C(=O)NC2CCCC2)c2ccc(O)c(O)c2)cc1 (stereo unspecified)
- IC50: inactive

SMILES: Cc1nnc(SC(=O)N2c3ccccc3Sc3ccccc32)s1
- IC50: inactive

SMILES: CN(C)S(=O)(=O)c1cccc(NC(=O)CSc2cccc3cccnc23)c1
- IC50: inactive

SMILES: COc1cc(C2CC(c3cccs3)=NN2C(=O)CCl)ccc1OC(F)F (stereo unspecified)
- IC50: 2.8 µM

SMILES: COc1ccc2c(c1)C(=O)C(=O)N2CC1COc2ccccc2O1 (stereo unspecified)
- IC50: 9.74 µM

SMILES: Cc1ccc(C2=NN(C(=O)CCl)C(c3ccco3)C2)o1 (stereo unspecified)
- IC50: 5.2 µM

SMILES: O=C(Oc1ccc(Br)cc1C(=O)/C=C/c1ccccc1F)c1ccco1
- IC50: 7.12 µM

SMILES: Cc1cc(C)c(C)c(S(=O)(=O)N2CCN(C(=O)c3cc(=O)[nH]c4ccccc34)CC2)c1C
- IC50: 4.83 µM

SMILES: O=C(O)c1ccc2ncsc2c1
- IC50: inactive

SMILES: Cc1ccc(C2CC(c3cccs3)=NN2C(=O)CCl)cc1 (stereo unspecified)
- IC50: 4.19 µM

SMILES: Cn1nc(-c2ccc(Cl)cc2)nc2c(=O)n(C)c(=O)nc1-2
- IC50: > 19.9 µM (inactive)

SMILES: CC(C)C12CN(C(=O)c3ccccc3[N+](=O)[O-])CC(C(C)C)(CN(C(=O)c3ccccc3[N+](=O)[O-])C1)C2=O
- IC50: inactive

SMILES: Cc1ccc(C(=O)c2c3ccc(C(F)(F)F)cc3[n+]([O-])n2CCC(N)=O)cc1
- IC50: inactive

SMILES: COc1cccc(C(C(=O)NCc2ccco2)N(Cc2ccco2)C(=O)Cn2nnc3ccccc32)c1 (stereo unspecified)
- IC50: 7.76 µM

SMILES: O=C(Oc1ccc(Cl)cc1N1C(=O)CCC1=O)c1ccco1
- IC50: inactive

SMILES: Cc1cc(=O)oc2cc(NC(=O)Cc3ccccc3[N+](=O)[O-])ccc12
- IC50: > 59.6 µM (inactive)

SMILES: Cc1cc(C)n(C(=O)c2ccc(C)c(Br)c2)n1
- IC50: inactive

SMILES: Cc1ccc2[nH]c3c(c2c1)CN(C(=O)CN1c2ccc(F)cc2CCC1C)CC3 (stereo unspecified)
- IC50: inactive

SMILES: Cc1cc(C(=O)CCl)c(C)n1-c1cccc([N+](=O)[O-])c1
- IC50: 4.59 µM

SMILES: COc1cc(/C=N\NC(=O)Cn2nnc3ccccc32)cc(OC)c1OC
- IC50: 5.18 µM

SMILES: CCC(C)c1ccc(N(C(=O)c2ccco2)C(C(=O)NC2CCCC2)c2cccnc2)cc1 (stereo unspecified)
- IC50: 2.23 µM

SMILES: O=C(/C=C/c1ccccc1Cl)Nc1cccnc1
- IC50: inactive

SMILES: COc1ccc(N(C(=O)Cn2nnc3ccccc32)C2(C(=O)NC3CCCC3)CCCCC2)cc1
- IC50: 7.89 µM

SMILES: CCC(C)(C)NC(=O)C(c1ccc(O)cc1)N(C(=O)Cn1nnc2ccccc21)c1ccc(NC(C)=O)cc1 (stereo unspecified)
- IC50: inactive

SMILES: O=C(Nc1ccccc1)NN(C(=O)CCl)c1ccccc1
- IC50: 9.64 µM

SMILES: O=C(Nc1ccc(OCC(F)(F)C(F)F)c(C(F)(F)F)c1)c1ccccc1O
- IC50: > 59.6 µM (inactive)

SMILES: O=C(/C=C/c1cccs1)Nc1scc(-c2ccccc2)c1C(=O)O
- IC50: 5.22 µM

SMILES: COc1ccc(C(=O)n2c(SC)nc3cc4c(cc32)OCCO4)cc1
- IC50: 1.08 µM

SMILES: COc1ccc(C(C(=O)NCC2CCCO2)N(C(=O)Cn2nnc3ccccc32)c2ccc(NC(C)=O)cc2)cc1 (stereo unspecified)
- IC50: 9.35 µM

SMILES: O=C1C(=O)N(C/C=C/c2ccccc2)c2ccccc21
- IC50: inactive

SMILES: O=C(OCC(=O)N1c2ccccc2Sc2ccccc21)c1cccnc1
- IC50: inactive

SMILES: Cc1cccc(N2CCN(C(=O)c3cc(=O)[nH]c4ccccc34)CC2)c1C
- IC50: 6.66 µM

SMILES: O=C1NC(=O)N(c2ccccc2F)C(=O)/C1=C/c1cn(CC(=O)N2CCOCC2)c2ccccc12
- IC50: inactive

SMILES: Cc1ccc(C(=O)c2c3ccccc3[n+]([O-])n2CCC(N)=O)cc1
- IC50: 9.36 µM

SMILES: CC(=O)n1cc(N(C(=O)CCl)c2ccc([N+](=O)[O-])cc2)c2ccccc21
- IC50: inactive

SMILES: COc1ccccc1OCCNC(=O)c1cc(=O)[nH]c2ccccc12
- IC50: 3.6 µM

SMILES: O=C(NCc1ccco1)C(c1ccco1)N(C(=O)Cn1nnc2ccccc21)c1ccc2c(c1)CCC2 (stereo unspecified)
- IC50: inactive

SMILES: O=C(Cn1nnc2ccccc21)c1ccc(Cl)cc1
- IC50: 9.91 µM

SMILES: CCOc1ccc2c(c1)C(=O)C(=O)N2CC1COc2ccccc2O1 (stereo unspecified)
- IC50: 4.29 µM

SMILES: Nc1ncc(Br)cc1S(=O)(=O)Nc1cc(C(F)(F)F)cc(C(F)(F)F)c1
- IC50: > 59.6 µM (inactive)

SMILES: O=C(N/N=C\c1c(O)ccc2ccccc12)c1cncc(Br)c1
- IC50: inactive

SMILES: COc1ccc(C(=O)Oc2cccnc2)cc1
- IC50: > 59.6 µM (inactive)

SMILES: O=C(O)c1[nH]c2ccccc2c1C(c1cc(Br)ccc1O)c1c(C(=O)O)[nH]c2ccccc12
- IC50: > 59.6 µM (inactive)

SMILES: CCN(CC)C(=O)Cn1cc(/C=C2\C(=O)NC(=O)N(c3ccccc3F)C2=O)c2ccccc21
- IC50: inactive

SMILES: O=C(Oc1cccnc1)c1ccc(Cl)cc1
- IC50: 6.31 µM

SMILES: COc1ccc2cc(C3(C)NC(=O)N(CC(=O)NCc4ccco4)C3=O)ccc2c1 (stereo unspecified)
- IC50: inactive

SMILES: CCCCOc1ccc(C(=O)Oc2cccnc2)cc1
- IC50: > 59.6 µM (inactive)

SMILES: O=Cc1cn(Cc2ccccc2)nc1-c1cccnc1
- IC50: 7.21 µM

SMILES: NC(=O)CCn1c(C(=O)c2cccc([N+](=O)[O-])c2)c2ccccc2[n+]1[O-]
- IC50: inactive

SMILES: Cc1cc(=O)oc2cc(OC(=O)c3ccco3)ccc12
- IC50: 3.34 µM

SMILES: CCn1nc(-c2ccccc2)nc2c(=O)n(C)c(=O)nc1-2
- IC50: > 59.6 µM (inactive)

SMILES: Cc1ccc(-c2cc(NC(=O)c3ccccc3[N+](=O)[O-])n[nH]2)cc1
- IC50: inactive

SMILES: O=c1[nH]c(=O)n(-c2ccccc2F)c(O)c1/C=C1\C=Nc2ccccc21
- IC50: 9.47 µM

SMILES: COc1ccc(C2C(O)C(c3c[nH]c4ccccc34)=NN2C(=O)CCl)cc1 (stereo unspecified)
- IC50: 3.58 µM

SMILES: Cc1cc(NC(=O)COn2nnc3ccc(S(C)(=O)=O)cc32)ccc1Br
- IC50: inactive

SMILES: CC(=O)NC1C(=O)N(CCN2CCOCC2)c2ccc(Br)cc21 (stereo unspecified)
- IC50: 7.58 µM

SMILES: O=C(O)COc1ccc(Br)cc1C(c1c(C(=O)O)[nH]c2ccccc12)c1c(C(=O)O)[nH]c2ccccc12
- IC50: > 59.6 µM (inactive)

SMILES: O=C(CCl)N(CCc1ccccc1)CCc1ccccc1
- IC50: inactive

SMILES: CC(C)c1ccc(N(C(=O)c2ccco2)C(C(=O)NC2CCCC2)c2cccnc2)cc1 (stereo unspecified)
- IC50: 5.93 µM

SMILES: CC1CCC2C(=O)N(c3cc(Cl)ccc3OC(=O)c3ccco3)C(=O)C2C1 (stereo unspecified)
- IC50: 5.39 µM

SMILES: Cc1ccc(/C=C/C(=O)c2cc(Br)ccc2OC(=O)c2ccco2)cc1
- IC50: inactive

SMILES: CCC(C)(C)NC(=O)C(c1cccn1C)N(C(=O)Cn1nnc2ccccc21)c1ccc(NC(C)=O)cc1 (stereo unspecified)
- IC50: 6.29 µM

SMILES: COC(=O)c1ccc(OC(=O)CN2C(=O)c3ccccc3C2=O)cc1
- IC50: > 59.6 µM (inactive)

SMILES: O=C(c1cc(=O)[nH]c2ccccc12)N1CCN(c2cccc(C(F)(F)F)c2)CC1
- IC50: 5.1 µM

SMILES: NC(=O)CCn1c(C(=O)c2ccc(Cl)cc2)c2ccccc2[n+]1[O-]
- IC50: 4.88 µM

SMILES: COc1cccc(C(C(=O)Nc2ccc(F)cc2)N(C(=O)Cn2nnc3ccccc32)C2CC2)c1 (stereo unspecified)
- IC50: inactive

SMILES: CC(C)C[C@H](NC(=O)c1nc[nH]c1C(=O)NCc1ccc(CNC(=O)OC(C)(C)C)cc1)C(=O)OC(C)(C)C
- IC50: > 59.6 µM (inactive)

SMILES: O=C(/C=C/c1c(F)cccc1Cl)Nc1cccnc1
- IC50: inactive

SMILES: CCc1cccc(CC)c1N(COC)C(=O)Cn1nnc2ccccc21
- IC50: inactive
